Source: patent US20220023289A1, “Application Of Pyrroloquinoline Quinone In Preparation Of Medicament Used For Preventing And Treating Acute Altitude Sickness And Acute Altitude Hypoxia Injury” (priority 2018, published 2022)

Key:
[1] = Body weight of male mice in exhaustive swimming experiment; details: 0.16 g/kg
Experimental: Select healthy male Kunming mice weight 18-22 g. After feeding for 3 days, they are randomly divided into seven groups according to their body weight, each group has 10±1 mice. The groups are divided as follows: 5 groups of the drug test group, respectively, are given 1.32 mg/kg, 2.64 mg/kg, 5.28 mg/kg, 10.56 mg/kg, and 21.12 mg/kg drugs by gavage administration. […] After administration for 7 days, select an exhaustive swimming experiment under hypoxic conditions perform physical work ability evaluation; the observation index is an exhaustive swimming time. In the decompression and hypoxia compound laboratory chamber, decompression hypoxia is performed to an altitude of 6000 m, the swimming box is filled with water at a depth of 40 cm and the water temperature is 25° C. The animal is placed in the swimming box, and use a stopwatch to record a time from the start of swimming to exhaustion of the animal. Exhaustive swimming time is the time when an animal still cannot surface for 9 s after sinking.

[2] = Mice weight before hypoxia tolerance test of simulated 10000 m altitude acute decompression
[3] = administration for 14 days, 0.16 g/kg
[4] = administration for three days, 0.16 g/kg
[5] = seven days, repeat experiment in male mice, 0.16 g/kg
[6] = administration for 14 days, 1.32 mg/kg
[7] = administration for 14 days, 2.64 mg/kg
[8] = administration for 14 days, 5.28 mg/kg
[9] = administration for 14 days, 10.56 mg/kg
[10] = administration for 14 days, 21.12 mg/kg
[11] = administration for seven days, 1.32 mg/kg
[12] = administration for seven days, 2.64 mg/kg
[13] = administration for seven days, 5.28 mg/kg
[14] = administration for seven days, 10.56 mg/kg
[15] = administration for seven days, 21.12 mg/kg
[16] = administration for three days, 1.32 mg/kg
[17] = administration for three days, 2.64 mg/kg
[18] = administration for three days, 5.28 mg/kg
[19] = administration for three days, 10.56 mg/kg
[20] = administration for three days, 21.12 mg/kg
[21] = seven days, repeat experiment in male mice, 1.32 mg/kg
[22] = seven days, repeat experiment in male mice, 2.64 mg/kg
[23] = seven days, repeat experiment in male mice, 5.28 mg/kg
[24] = seven days, repeat experiment in male mice, 10.56 mg/kg
[25] = seven days, repeat experiment in male mice, 21.12 mg/kg

**Q.** For CC(=O)Nc1nnc(S(N)(=O)=O)s1 [Acetazolamide, reference compound], which “body weight male 1 day” value [1] is on record?
**A.** Its value is 21.28 ± 1.38 g.

**Q.** And the “body weight male 7 days” value [1]?
**A.** Its value is 23.05 ± 4.41 g.

**Q.** And the “Mice weight Female 1 day” value [2, 3]?
**A.** The value was 15.24 ± 0.89 g.

**Q.** What about the “Mice weight Female 7 days” value [2, 3] of the same compound?
**A.** The value was 19.35 ± 3.12 g.

**Q.** What about the “Mice weight Male 1 day” value [2, 3] of the same compound?
**A.** Its value is 14.66 ± 1.52 g.

**Q.** What about the “Mice weight Male 7 days” value [2, 3] of the same compound?
**A.** Its value is 16.29 ± 3.25 g.

**Q.** And the “Mice weight Male 14 days” value [2, 3]?
**A.** The value was 21.16 ± 3.61 g.

**Q.** And the “Mice weight Female” value [2, 4]?
**A.** Its value is 17.80 ± 0.94 g.

**Q.** What about the “Mice weight Male” value [2, 4] of the same compound?
**A.** Its value is 18.29 ± 0.85 g.

**Q.** What about the “Mice weight Male 1 day” value [2, 5] of the same compound?
**A.** Its value is 19.53 ± 0.93 g.

**Q.** And the “Mice weight Male 7 days” value [2, 5]?
**A.** The value was 21.35 ± 2.47 g.

**Q.** What about the “Mice weight Female” value ([2]; single dose test, 0.16 g/kg) of the same compound?
**A.** Its value is 17.31 ± 1.22 g.

**Q.** What about the “Mice weight Male” value ([2]; single dose test, 0.16 g/kg) of the same compound?
**A.** Its value is 19.47 ± 0.57 g.

**Q.** With O=C(O)c1cc(C(=O)O)c2c(n1)C(=O)C(=O)c1cc(C(=O)O)[nH]c1-2 [PQQ, pyrroloquinoline quinone] as the compound, how does the “Mice weight Female 1 day” value [2, 6] read?
**A.** Its value is 16.13 ± 1.20 g.

**Q.** And the “Mice weight Female 7 days” value [2, 6]?
**A.** The value was 20.45 ± 1.37 g.

**Q.** And the “Mice weight Male 1 day” value [2, 6]?
**A.** The value was 16.36 ± 1.47 g.

**Q.** And the “Mice weight Male 7 days” value [2, 6]?
**A.** The value was 22.88 ± 1.78 g.

**Q.** What about the “Mice weight Male 14 days” value [2, 6] of the same compound?
**A.** Its value is 30.85 ± 2.32 g.

**Q.** What about the “Mice weight Female 1 day” value [2, 7] of the same compound?
**A.** Its value is 15.75 ± 1.07 g.

**Q.** What about the “Mice weight Female 7 days” value [2, 7] of the same compound?
**A.** Its value is 21.41 ± 1.62 g.

**Q.** And the “Mice weight Male 1 day” value [2, 7]?
**A.** The value was 16.63 ± 1.87 g.

**Q.** What about the “Mice weight Male 7 days” value [2, 7] of the same compound?
**A.** Its value is 22.58 ± 1.41 g.

**Q.** And the “Mice weight Male 14 days” value [2, 7]?
**A.** The value was 28.13 ± 2.70 g.

**Q.** What about the “Mice weight Female 1 day” value [2, 8] of the same compound?
**A.** Its value is 15.63 ± 1.12 g.

**Q.** What about the “Mice weight Female 7 days” value [2, 8] of the same compound?
**A.** Its value is 20.47 ± 2.11 g.

**Q.** And the “Mice weight Male 1 day” value [2, 8]?
**A.** The value was 17.01 ± 1.91 g.

**Q.** What about the “Mice weight Male 7 days” value [2, 8] of the same compound?
**A.** The value was 23.68 ± 2.02 g.

**Q.** What about the “Mice weight Male 14 days” value [2, 8] of the same compound?
**A.** Its value is 29.44 ± 2.15 g.

**Q.** And the “Mice weight Female 1 day” value [2, 9]?
**A.** Its value is 15.84 ± 1.33 g.

**Q.** What about the “Mice weight Female 7 days” value [2, 9] of the same compound?
**A.** The value was 21.68 ± 1.66 g.

**Q.** And the “Mice weight Male 1 day” value [2, 9]?
**A.** The value was 16.58 ± 1.68 g.

**Q.** And the “Mice weight Male 7 days” value [2, 9]?
**A.** Its value is 23.13 ± 1.73 g.

**Q.** And the “Mice weight Male 14 days” value [2, 9]?
**A.** Its value is 19.58 ± 2.11 g.

**Q.** And the “Mice weight Female 1 day” value [2, 10]?
**A.** The value was 15.68 ± 0.91 g.

**Q.** What about the “Mice weight Female 7 days” value [2, 10] of the same compound?
**A.** Its value is 20.10 ± 2.07 g.

**Q.** And the “Mice weight Male 1 day” value [2, 10]?
**A.** Its value is 16.86 ± 1.71 g.

**Q.** What about the “Mice weight Male 7 days” value [2, 10] of the same compound?
**A.** Its value is 23.67 ± 1.77 g.

**Q.** What about the “Mice weight Male 14 days” value [2, 10] of the same compound?
**A.** The value was 30.81 ± 2.76 g.

**Q.** What about the “Mice weight Female 1 day” value [2, 11] of the same compound?
**A.** The value was 18.10 ± 1.19 g.

**Q.** And the “Mice weight Female 7 days” value [2, 11]?
**A.** The value was 21.36 ± 1.98 g.

**Q.** And the “Mice weight Male 1 day” value [2, 11]?
**A.** The value was 18.46 ± 1.36 g.

**Q.** What about the “Mice weight Male 7 days” value [2, 11] of the same compound?
**A.** The value was 22.19 ± 2.69 g.

**Q.** What about the “Mice weight Female 1 day” value [2, 12] of the same compound?
**A.** Its value is 18.19 ± 1.24 g.

**Q.** And the “Mice weight Female 7 days” value [2, 12]?
**A.** The value was 21.40 ± 1.92 g.

**Q.** What about the “Mice weight Male 1 day” value [2, 12] of the same compound?
**A.** The value was 18.31 ± 1.01 g.

**Q.** What about the “Mice weight Male 7 days” value [2, 12] of the same compound?
**A.** Its value is 23.51 ± 3.09 g.

**Q.** And the “Mice weight Female 1 day” value [2, 13]?
**A.** The value was 17.95 ± 1.28 g.

**Q.** And the “Mice weight Female 7 days” value [2, 13]?
**A.** The value was 22.71 ± 1.38 g.

**Q.** And the “Mice weight Male 1 day” value [2, 13]?
**A.** Its value is 18.38 ± 1.85 g.

**Q.** And the “Mice weight Male 7 days” value [2, 13]?
**A.** Its value is 22.04 ± 3.25 g.

**Q.** And the “Mice weight Female 1 day” value [2, 14]?
**A.** The value was 17.99 ± 1.41 g.

**Q.** And the “Mice weight Female 7 days” value [2, 14]?
**A.** The value was 22.66 ± 1.68 g.

**Q.** What about the “Mice weight Male 1 day” value [2, 14] of the same compound?
**A.** The value was 18.26 ± 1.15 g.

**Q.** What about the “Mice weight Male 7 days” value [2, 14] of the same compound?
**A.** Its value is 22.41 ± 1.79 g.

**Q.** What about the “Mice weight Female 1 day” value [2, 15] of the same compound?
**A.** Its value is 18.35 ± 1.62 g.

**Q.** And the “Mice weight Female 7 days” value [2, 15]?
**A.** Its value is 23.94 ± 2.10 g.

**Q.** What about the “Mice weight Male 1 day” value [2, 15] of the same compound?
**A.** The value was 18.00 ± 1.78 g.

**Q.** And the “Mice weight Male 7 days” value [2, 15]?
**A.** The value was 23.54 ± 3.92 g.

**Q.** What about the “Mice weight Female” value [2, 16] of the same compound?
**A.** The value was 18.22 ± 1.16 g.

**Q.** What about the “Mice weight Male” value [2, 16] of the same compound?
**A.** The value was 19.97 ± 0.84 g.

**Q.** What about the “Mice weight Female” value [2, 17] of the same compound?
**A.** The value was 18.79 ± 1.14 g.

**Q.** What about the “Mice weight Male” value [2, 17] of the same compound?
**A.** Its value is 19.65 ± 0.83 g.

**Q.** What about the “Mice weight Female” value [2, 18] of the same compound?
**A.** Its value is 18.10 ± 0.76 g.

**Q.** What about the “Mice weight Male” value [2, 18] of the same compound?
**A.** The value was 20.16 ± 1.18 g.

**Q.** What about the “Mice weight Female” value [2, 19] of the same compound?
**A.** The value was 17.95 ± 1.14 g.

**Q.** And the “Mice weight Male” value [2, 19]?
**A.** Its value is 19.73 ± 0.85 g.

**Q.** What about the “Mice weight Female” value [2, 20] of the same compound?
**A.** Its value is 18.48 ± 1.01 g.

**Q.** What about the “Mice weight Male” value [2, 20] of the same compound?
**A.** Its value is 19.28 ± 0.95 g.

**Q.** What about the “Mice weight Male 1 day” value [2, 21] of the same compound?
**A.** Its value is 19.84 ± 1.84 g.

**Q.** What about the “Mice weight Male 7 days” value [2, 21] of the same compound?
**A.** The value was 27.14 ± 2.66 g.

**Q.** What about the “Mice weight Male 1 day” value [2, 22] of the same compound?
**A.** The value was 19.66 ± 1.08 g.

**Q.** And the “Mice weight Male 7 days” value [2, 22]?
**A.** The value was 26.78 ± 3.14 g.

**Q.** And the “Mice weight Male 1 day” value [2, 23]?
**A.** Its value is 19.75 ± 1.27 g.

**Q.** And the “Mice weight Male 7 days” value [2, 23]?
**A.** Its value is 26.47 ± 2.88 g.

**Q.** What about the “Mice weight Male 1 day” value [2, 24] of the same compound?
**A.** The value was 19.90 ± 1.06 g.

**Q.** What about the “Mice weight Male 7 days” value [2, 24] of the same compound?
**A.** The value was 27.33 ± 2.27 g.

**Q.** What about the “Mice weight Male 1 day” value [2, 25] of the same compound?
**A.** The value was 19.85 ± 1.00 g.

**Q.** What about the “Mice weight Male 7 days” value [2, 25] of the same compound?
**A.** Its value is 26.73 ± 2.37 g.

**Q.** What about the “Mice weight Female” value ([2]; single dose test, 2.64 mg/kg) of the same compound?
**A.** Its value is 17.25 ± 1.23 g.

**Q.** And the “Mice weight Male” value ([2]; single dose test, 2.64 mg/kg)?
**A.** Its value is 19.71 ± 0.52 g.

**Q.** What about the “Mice weight Female” value ([2]; single dose test, 5.28 mg/kg) of the same compound?
**A.** The value was 17.32 ± 1.35 g.

**Q.** And the “Mice weight Male” value ([2]; single dose test, 5.28 mg/kg)?
**A.** The value was 19.51 ± 0.68 g.

**Q.** And the “Mice weight Female” value ([2]; single dose test, 10.56 mg/kg)?
**A.** Its value is 17.24 ± 0.96 g.

**Q.** And the “Mice weight Male” value ([2]; single dose test, 10.56 mg/kg)?
**A.** Its value is 19.16 ± 0.34 g.
